Laboratory results taken from patent US7713994B2 (Wyeth LLC, priority 2005, dated 2010).
Counter-ions that a name gives are not always drawn. Like-named read-outs stand apart in the source and are kept apart here.

Experiments:
MCF-7 = experiment: Cytotoxicity assay (SRB), MCF-7; format: cell-based; details: Homo sapiens, MCF7, 72 h, MCF-7 cells, SRB, read-out: In Vitro Cellular Activity IC50 MCF-7
Outline: (§1)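 Protein staining with sulforhodamine B after cold TCA fixation served as the survival endpoint (A540, relative to untreated cells). Before staining, cells were incubated with compound at 37 °C, 7% CO2 for 3 days, or 6 days for BT474.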

LoVo = experiment: Cytotoxicity assay (SRB), LoVo; format: cell-based; details: Homo sapiens, LoVo, 72 h, LoVo cells, SRB, read-out: In Vitro Cellular Activity IC50 LOVO
Outline: as §1

cyclin D1/cdk 4 enzyme = molecular target: T1, cyclin D1/cdk 4 enzyme (Homo sapiens, UniProt P11802); experiment: CDK4 ELISA kinase assay (phospho-Rb ser 795 detection); format: biochemical
T1 construct: made in house; host or cells: Sf9 insect cells, recombinant baculovirus
Outline: (§2)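 GST-Rb C-terminal fragment coated on plates; partially purified Sf9-expressed cyclin D1/CDK4, cyclin E/CDK2 or cyclin B/CDK1 with 200 μM ATP, pH 7.5 HEPES/MgCl2 buffer, 1 h at 30 °C; screen compound final 10 μg/ml. Phospho-Rb Ser795 detected by antibody ELISA (TMB, A450); % of control, IC50 from background-subtracted inhibition curves.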

cyclin E/CDK2 enzyme = molecular target: T2, cyclin E/CDK2 enzyme (Homo sapiens, UniProt P24941); experiment: CDK2 ELISA kinase assay (phospho-Rb ser 795 detection); format: biochemical
T2 construct: made in house; host or cells: Sf9 insect cells, recombinant baculovirus
Outline: as §2

HCT-116 = experiment: Cytotoxicity assay (SRB), HCT-116; format: cell-based; details: Homo sapiens, HCT-116, 72 h, HCT116 cells, SRB, read-out: In Vitro Cellular Activity IC50 HCT116
Outline: as §1

cyclin B/CDK1 enzyme = molecular target: T3, cyclin B/CDK1 enzyme (Homo sapiens, UniProt P06493); experiment: CDK1 ELISA kinase assay (phospho-Rb ser 795 detection); format: biochemical
T3 construct: purchased New England BioLabs; host or cells: Sf9 insect cells, recombinant baculovirus
Outline: as §2

BT474 = experiment: Cytotoxicity assay (SRB), BT474; format: cell-based
Outline: as §1

[1] = In Vitro Enzyme Assay, cyclin D1/cdk 4, read-out: CDK4 IC50
[2] = In Vitro Enzyme Assay, cyclin E/CDK2, read-out: CDK2 IC50
[3] = In Vitro Enzyme Assay, cyclin B/CDK1, read-out: CDK1 IC50
[4] = Homo sapiens, BT-474, 144 h, BT474 cells, 6 days, SRB; read-out: In Vitro Cellular Activity IC50 BT474
[5] = In Vitro Enzyme Assays, 200 μM ATP, read-out: CDK4 IC50
[6] = In Vitro Enzyme Assays, read-out: CDK2 IC50
[7] = In Vitro Enzyme Assays, read-out: CDK1 IC50
[8] = Homo sapiens, BT-474, 144 h, BT474 cells, SRB, 6 days; read-out: In Vitro Cellular Activity IC50 BT474

T1 sequence (P11802 whole entry, species assumed): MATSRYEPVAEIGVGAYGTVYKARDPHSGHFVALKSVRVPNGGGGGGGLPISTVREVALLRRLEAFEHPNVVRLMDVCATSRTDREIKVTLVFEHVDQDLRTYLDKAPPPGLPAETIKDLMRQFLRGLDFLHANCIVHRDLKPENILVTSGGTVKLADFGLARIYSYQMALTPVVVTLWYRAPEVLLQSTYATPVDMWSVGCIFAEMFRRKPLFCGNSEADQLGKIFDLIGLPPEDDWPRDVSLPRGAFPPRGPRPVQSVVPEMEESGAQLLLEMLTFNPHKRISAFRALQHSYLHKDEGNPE
T1 sequence (P24385 whole entry partner, species assumed): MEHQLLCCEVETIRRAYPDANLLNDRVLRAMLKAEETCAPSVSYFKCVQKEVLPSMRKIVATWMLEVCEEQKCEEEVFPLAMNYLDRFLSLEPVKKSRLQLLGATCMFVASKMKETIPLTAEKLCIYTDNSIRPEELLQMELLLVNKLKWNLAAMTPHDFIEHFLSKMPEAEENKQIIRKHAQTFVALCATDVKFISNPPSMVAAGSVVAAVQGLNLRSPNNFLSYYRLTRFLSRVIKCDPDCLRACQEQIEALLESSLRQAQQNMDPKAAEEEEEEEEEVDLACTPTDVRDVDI
T3 sequence (P06493 whole entry): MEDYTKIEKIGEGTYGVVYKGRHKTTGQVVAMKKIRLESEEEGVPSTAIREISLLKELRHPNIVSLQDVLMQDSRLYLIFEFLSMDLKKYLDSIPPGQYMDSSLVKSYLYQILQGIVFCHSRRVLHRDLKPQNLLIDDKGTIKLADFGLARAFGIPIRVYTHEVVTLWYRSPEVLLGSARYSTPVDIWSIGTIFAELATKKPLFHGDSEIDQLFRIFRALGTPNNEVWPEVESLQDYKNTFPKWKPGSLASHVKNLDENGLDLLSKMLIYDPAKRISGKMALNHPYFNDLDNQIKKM
T3 sequence (P14635 whole entry partner): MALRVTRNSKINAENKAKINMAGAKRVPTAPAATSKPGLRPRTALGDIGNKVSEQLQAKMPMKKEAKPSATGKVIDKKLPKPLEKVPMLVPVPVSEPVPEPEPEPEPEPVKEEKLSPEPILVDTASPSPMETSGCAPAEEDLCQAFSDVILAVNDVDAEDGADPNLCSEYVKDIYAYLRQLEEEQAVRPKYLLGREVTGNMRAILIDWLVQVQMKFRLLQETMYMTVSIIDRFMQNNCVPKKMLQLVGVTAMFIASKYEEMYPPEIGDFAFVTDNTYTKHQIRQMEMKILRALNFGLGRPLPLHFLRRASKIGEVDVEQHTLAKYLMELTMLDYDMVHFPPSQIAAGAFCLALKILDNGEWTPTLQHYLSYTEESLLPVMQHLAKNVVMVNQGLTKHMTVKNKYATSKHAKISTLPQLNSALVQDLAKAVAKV

melting point	IC50 (cyclin D1/cdk 4 enzyme; [1])	IC50 (cyclin E/CDK2 enzyme; [2])	IC50 (cyclin B/CDK1 enzyme; [3])	SMILES	IC50 (MCF-7; 3 days)	IC50 (LoVo; 3 days)	IC50 (HCT-116; 3 days)	IC50 (BT474; [4])	also measured
209 to 210 °C	–	–	–	COc1ccc(CN/C=C2\C(=O)NC(=O)c3ccc(I)cc32)cc1O (as salt: hydrochloride) [Example 80, (4Z)-6-Iodo-4-{[(3-hydroxy-4-methoxybenzyl)amino]methylene}isoquinoline-1,3(2H,4H)-dione]	–	–	–	–	–
245 to 246 °C	–	–	–	CN1CCN(c2ccc(N/C=C3\C(=O)NC(=O)c4ccccc43)cc2)CC1	–	–	–	–	–
169 to 170 °C	–	–	–	COc1cccc(-c2ccc3c(c2)/C(=C/Nc2ccc(CN4CCCCC4)cc2)C(=O)NC3=O)c1 (hydrate or solvate) [Example 117, (4Z)-6-(3-Methoxyphenyl)-4-({[4-(piperidin-1-ylmethyl)phenyl]amino}methylene)-isoquinoline-1,3(2H,4H)-dione]	–	–	–	–	–
152 to 153 °C	–	–	–	CN1CCN(c2ccc(N/C=C3\C(=O)NC(=O)c4ccc(-c5ccc(C=O)cc5)cc43)cc2)CC1 (hydrate or solvate) [Example 115, 4-[(4Z)-4-({[4-(4-Methylpiperazin-1-yl)phenyl]amino}methylene)-1,3-dioxo-1,2,3,4-tetra-hydroisoquinolin-6-yl]benzaldehyde]	–	–	–	–	–
199 to 200 °C	–	–	–	C[C@@H]1CN(c2ccc(N/C=C3\C(=O)NC(=O)c4ccc(-c5ccoc5)cc43)cc2)C[C@H](C)N1 (as salt: sodium) [Example 207, (4Z)-4-({[4-(3,5-Dimethylpiperazin-1-yl)phenyl]amino}methylene)-6-(3-furyl)iso-quinoline-1,3(2H,4H)-dione]	–	–	–	–	–
227 to 228 °C	–	–	–	CCCOc1ccc(CN/C=C2\C(=O)NC(=O)c3ccc(-c4ccc(F)c(F)c4)cc32)cc1O (as salt: sodium) [Example 194, (4Z)-6-(3,4-Difluorophenyl)-4-{[(3-hydroxy-4-propoxybenzyl)amino]methylene}-isoquinoline-1,3(2H,4H)-dione]	–	–	–	–	–
345 to 346 °C	–	–	–	CC(=O)Nc1ccc(CN/C=C2\C(=O)NC(=O)c3ccc(I)cc32)cc1O (as salt: potassium) [Example 151, N-[2-Hydroxy-4-({[(Z)-(6-iodo-1,3-dioxo-2,3-dihydroisoquinolin-4(1H)-′ylidene)methyl]amino}methyl)phenyl]acetamide]	–	–	–	–	–
–	5.4 µM	41.5 µM	> 50 µM	O=C1NC(=O)c2ccc(I)cc2/C1=C/NCc1cc(O)ccc1-c1ccco1 [Example 499, 4-[(2-Furan-2-yl-5-hydroxy-benzylamino)-methylene]-6-iodo-4H-isoquinoline-1,3-dione]	9.1 µM	8.4 µM	4.8 µM	9.8 µM	–
–	0.06 µM	> 50 µM	> 50 µM	O=C1NC(=O)c2ccc(-c3ccoc3)cc2/C1=C/Nc1ccc(CN2CCC[C@H]2CO)cc1 [Example 463, 6-Furan-3-yl-4-{[4-(2-hydroxymethyl-pyrrolidin-1-ylmethyl)-phenylamino]-methylene}-4H-isoquinoline-1,3-dione]	0.9 µM	2 µM	2.3 µM	1.7 µM	–
–	–	–	–	O=C1NC(=O)c2ccc(Br)cc2/C1=C/Nc1ccc(CN2CCC(O)CC2)cc1 [compound 75]	–	–	–	–	IC50 (MCF-7; three days): 4.3 µM; IC50 (LoVo; three days): 6 µM; IC50 (cyclin D1/cdk 4 enzyme; [5]): 0.29 µM; IC50 (cyclin E/CDK2 enzyme; [6]): 7.2 µM; IC50 (HCT-116; three days): 5.8 µM; IC50 (cyclin B/CDK1 enzyme; [7]): > 50 µM; IC50 (BT474; [8]): 9.7 µM
–	0.2 µM	6.7 µM	18.9 µM	CCN(CC)c1ccc2c(c1)C(=CNCc1ccc(O)c(O)c1)C(=O)NC2=O [Example 608, 6-Diethylamino-4-[(3,4-dihydroxy-benzylamino)-methylene]-4H-isoquinoline-1,3-dione]	10.7 µM	10.4 µM	11.4 µM	11.6 µM	–
–	–	–	–	CC(C)N1CCN(c2ccc(N/C=C3\C(=O)NC(=O)c4ccc(I)cc43)cn2)CC1 [Example 413]	5.8 µM	3.3 µM	1.9 µM	5 µM	IC50 (cyclin D1/cdk 4 enzyme; [5]): 0.19 µM; IC50 (cyclin E/CDK2 enzyme; [6]): > 50 µM; IC50 (cyclin B/CDK1 enzyme; [7]): > 50 µM
–	0.02 µM	3.1 µM	> 50 µM	O=C1NC(=O)c2ccc(C3CCCC3)cc2/C1=C/NCc1ccc(-c2ccoc2)c(O)c1 [Example 536, 6-Cyclopentyl-4-[(4-furan-3-yl-3-hydroxy-benzylamino)-methylene]-4H-isoquinoline-1,3-dione]	2.1 µM	0.51 µM	1.1 µM	0.43 µM	–
–	–	–	–	O=C1NC(=O)c2ccc(Br)cc2/C1=C/Nc1ccc(-n2ccnc2)cc1 [Example 869, (4Z)-6-Bromo-4-({[4-(1H-imidazol-1-yl)phenyl]amino}methylene)isoquinoline-1,3(2H,4H)-dione]	> 50 µM	> 50 µM	5.4 µM	> 50 µM	IC50 (cyclin D1/cdk 4 enzyme; In Vitro Enzyme Assay, read-out: CDK4 IC50): 22.6 µM; IC50 (cyclin E/CDK2 enzyme; In Vitro Enzyme Assay, read-out: CDK2 IC50): 14.7 µM; IC50 (cyclin B/CDK1 enzyme; In Vitro Enzyme Assay, read-out: CDK1 IC50): > 50 µM
–	7.5 µM	39.8 µM	13.8 µM	O=C1NC(=O)c2ccccc2/C1=C/Nc1ccc(CN2CCCC2)cc1 [Example 576, 4-[(4-Pyrrolidin-1-ylmethyl-phenylamino)-methylene]-4H-isoquinoline-1,3-dione]	7.6 µM	19.1 µM	6.3 µM	7.4 µM	–
–	–	–	–	O=C1NC(=O)c2ccc(I)cc2/C1=C/Nc1ccc(N2CCN(Cc3ccoc3)CC2)cc1 [Example 390, (4Z)-4-[({4-[4-(3-Furylmethyl)piperazin-1-yl]phenyl}amino)methylene]-6-iodoisoquinoline-1,3(2H,4H)-dione]	22 µM	> 50 µM	17 µM	> 50 µM	IC50 (cyclin D1/cdk 4 enzyme; [5]): 0.88 µM; IC50 (cyclin E/CDK2 enzyme; [6]): 19.3 µM; IC50 (cyclin B/CDK1 enzyme; [7]): 1.45 µM
–	–	–	–	CN1CCC(N(C)c2ccc(N/C=C3\C(=O)NC(=O)c4ccc(Br)cc43)cc2)C1 (stereo not drawn) [Example 245, (4Z)-6-Bromo-4-[({4-[methyl(1-methylpyrrolidin-3-yl)amino]phenyl}amino)methylene]isoquinoline-1,3(2H,4H)-dione]	–	–	–	–	IC50 (MCF-7; three days): 3 µM; IC50 (LoVo; three days): 6.6 µM; IC50 (cyclin D1/cdk 4 enzyme; [5]): 2 µM; IC50 (cyclin E/CDK2 enzyme; [6]): > 50 µM; IC50 (HCT-116; three days): 3.4 µM; IC50 (cyclin B/CDK1 enzyme; [7]): > 50 µM; IC50 (BT474; [8]): 8.4 µM
–	> 50 µM	> 50 µM	44.5 µM	CC(C)CC(=O)Nc1ccc(CN/C=C2\C(=O)NC(=O)c3ccccc32)cc1 [Example 593, N-(4{[(1,3-Dioxo-2,3-dihydro-1H-isoquinolin-4-ylidenemethyl)-amino]-methyl}-phenyl)-3-methyl-butyramide]	25.9 µM	35.8 µM	13.8 µM	26.6 µM	–
–	–	–	–	O=C1NC(=O)c2ccc(I)cc2/C1=C/Nc1ccc(N2CCC[C@H]2CO)c(F)c1 (stereo in doubt) [Example 426, 4-{[3-Fluoro-4-(2-hydroxymethyl-pyrrolidin-1-yl)-phenylamino]-methylene}-6-iodo-4H-isoquinoline-1,3-dione]	2.8 µM	2.2 µM	1.6 µM	4.5 µM	IC50 (cyclin D1/cdk 4 enzyme; [5]): 10 µM; IC50 (cyclin E/CDK2 enzyme; [6]): 31 µM; IC50 (cyclin B/CDK1 enzyme; [7]): > 50 µM
–	–	–	–	CC#CC(=O)Nc1ccc(CN/C=C2\C(=O)NC(=O)c3ccc(I)cc32)cc1O [Example 339, N-[2-Hydroxy-4-({[(Z)-(6-iodo-1,3-dioxo-2,3-dihydroisoquinolin-4(1H)-ylidene)methyl]amino}methyl)phenyl]but-2-ynamide]	–	–	–	–	IC50 (MCF-7; three days): 16 µM; IC50 (LoVo; three days): 12 µM; IC50 (cyclin D1/cdk 4 enzyme; [5]): 0.07 µM; IC50 (cyclin E/CDK2 enzyme; [6]): 0.37 µM; IC50 (HCT-116; three days): 10 µM; IC50 (cyclin B/CDK1 enzyme; [7]): 0.82 µM; IC50 (BT474; [8]): 5.1 µM
–	0.02 µM	0.5 µM	2.1 µM	CN(C)CC(=O)Nc1ccc(CN/C=C2\C(=O)NC(=O)c3ccc(I)cc32)cc1O [Example 526, N^1-[2-Hydroxy-4-({[(Z)-(6-iodo-1,3-dioxo-2,3-dihydroisoquinolin-4(1H)-ylidene)methyl]amino}methyl)phenyl]-N^2,N^2-dimethylglycinamide]	3.3 µM	5.6 µM	2.4 µM	7.2 µM	–
